In paper PMC9578392, “Safety, Tolerability, and Pharmacokinetics of the Novel Antiviral Agent Ensitrelvir Fumaric Acid, a SARS-CoV-2 3CL Protease Inhibitor, in Healthy Adults” (Antimicrobial Agents and Chemotherapy, 2022):
Read-outs that look alike come from different tables or passages of the source.

Key:
[1] = Blood lipid profiling, single-dose part (Supplementary Table 3); assay type: in vivo, human
[2] = Multiple-dose pharmacokinetics (part 2, cohorts F, G, H); assay type: in vivo, human; details: for GLS mean ratio (90% CI) of AUC0-τ (white/Japanese) / GLS mean ratio (90% CI) of Cmax (white/Japanese): 375/125 mg, cohort H vs F; for Cmax / AUC / Tmax: human, plasma, oral; for Cmax / AUC: geometric mean (%CV); for AUC: read-out: AUC0-τ; for Tmax: median (min, max)
[3] = 375 mg, F/375/125 mg (Japanese), Day 1, fasted
[4] = 375 mg, H/375/125 mg (white), Day 1, fasted
[5] = 750 mg, G/750/250 mg (Japanese), Day 1, fasted
[6] = F/375/125 mg (Japanese), Day 5, fasted
[7] = G/750/250 mg (Japanese), Day 5, fasted
[8] = H/375/125 mg (white), Day 5, fasted

## Cn1cnc(Cn2c(=O)[nH]/c(=N\c3cc4cn(C)nc4cc3Cl)n(Cc3cc(F)c(F)cc3F)c2=O)n1 [Ensitrelvir, ensitrelvir fumaric acid]
[1]; Cohort D 500 mg single dose, Follow up, baseline mean 4.2838
  Cholesterol, Mean (SD): 3.6505 mmol/L
[1]; Cohort D 500 mg single dose, Follow up, baseline mean 546.7
  HDL-C, Mean (SD): 450.0 (85.1) mg/L
[1]; Cohort D 500 mg single dose, Follow up, baseline mean 990.0
  LDL-C, Mean (SD): 843.3 mg/L
[1]; Cohort E 1000 mg single dose, Day 2, baseline mean 1.0275
  Triglyceride, Mean (SD): 2.3427 mmol/L
[1]; Cohort E 1000 mg single dose, Day 2, baseline mean 4.1332
  Cholesterol, Mean (SD): 3.5257 mmol/L
[1]; Cohort E 1000 mg single dose, Day 2, baseline mean 413.3
  HDL-C, Mean (SD): 166.7 (45.5) mg/L
[1]; Cohort E 1000 mg single dose, Day 2, baseline mean 986.7
  LDL-C, Mean (SD): 840.0 mg/L
[1]; Cohort E 1000 mg single dose, Day 4, baseline mean 1.0275
  Triglyceride, Mean (SD): 1.9683 mmol/L
[1]; Cohort E 1000 mg single dose, Day 4, baseline mean 4.1332
  Cholesterol, Mean (SD): 3.2498 mmol/L
[1]; Cohort E 1000 mg single dose, Day 4, baseline mean 413.3
  HDL-C, Mean (SD): 180.0 (52.5) mg/L
[1]; Cohort E 1000 mg single dose, Day 4, baseline mean 986.7
  LDL-C, Mean (SD): 800.0 mg/L
[1]; Cohort E 1000 mg single dose, Day 7/Early termination, baseline mean 1.0275
  Triglyceride, Mean (SD): 1.2210 mmol/L
[1]; Cohort E 1000 mg single dose, Day 7/Early termination, baseline mean 4.1332
  Cholesterol, Mean (SD): 3.7628 mmol/L
[1]; Cohort E 1000 mg single dose, Day 7/Early termination, baseline mean 413.3
  HDL-C, Mean (SD): 303.3 (61.5) mg/L
[1]; Cohort E 1000 mg single dose, Day 7/Early termination, baseline mean 986.7
  LDL-C, Mean (SD): 1003.3 mg/L
[1]; Cohort E 1000 mg single dose, Follow up, baseline mean 1.0275
  Triglyceride, Mean (SD): 0.7565 mmol/L
[1]; Cohort E 1000 mg single dose, Follow up, baseline mean 4.1332
  Cholesterol, Mean (SD): 3.7410 mmol/L
[1]; Cohort E 1000 mg single dose, Follow up, baseline mean 413.3
  HDL-C, Mean (SD): 343.3 (47.2) mg/L
[1]; Cohort E 1000 mg single dose, Follow up, baseline mean 986.7
  LDL-C, Mean (SD): 988.3 mg/L
[1]; Cohort J 2000 mg single dose, Day 2, baseline mean 0.9975
  Triglyceride, Mean (SD): 2.0737 mmol/L
[1]; Cohort J 2000 mg single dose, Day 2, baseline mean 4.4608
  Cholesterol, Mean (SD): 3.9952 mmol/L
[1]; Cohort J 2000 mg single dose, Day 2, baseline mean 543.3
  HDL-C, Mean (SD): 225.0 (76.6) mg/L
[1]; Cohort J 2000 mg single dose, Day 2, baseline mean 1051.7
  LDL-C, Mean (SD): 901.7 mg/L
[1]; Cohort J 2000 mg single dose, Day 4, baseline mean 0.9975
  Triglyceride, Mean (SD): 1.7668 mmol/L
[1]; Cohort J 2000 mg single dose, Day 4, baseline mean 4.4608
  Cholesterol, Mean (SD): 3.4133 mmol/L
[1]; Cohort J 2000 mg single dose, Day 4, baseline mean 543.3
  HDL-C, Mean (SD): 171.7 (55.6) mg/L
[1]; Cohort J 2000 mg single dose, Day 4, baseline mean 1051.7
  LDL-C, Mean (SD): 865.0 mg/L
[1]; Cohort J 2000 mg single dose, Day 7/Early termination, baseline mean 0.9975
  Triglyceride, Mean (SD): 0.7867 mmol/L
[1]; Cohort J 2000 mg single dose, Day 7/Early termination, baseline mean 4.4608
  Cholesterol, Mean (SD): 3.9437 mmol/L
[1]; Cohort J 2000 mg single dose, Day 7/Early termination, baseline mean 543.3
  HDL-C, Mean (SD): 253.3 mg/L
[1]; Cohort J 2000 mg single dose, Day 7/Early termination, baseline mean 1051.7
  LDL-C, Mean (SD): 1135.0 mg/L
[1]; Cohort J 2000 mg single dose, Follow up, baseline mean 0.9975
  Triglyceride, Mean (SD): 0.4255 mmol/L
[1]; Cohort J 2000 mg single dose, Follow up, baseline mean 4.4608
  Cholesterol, Mean (SD): 3.7112 mmol/L
[1]; Cohort J 2000 mg single dose, Follow up, baseline mean 543.3
  HDL-C, Mean (SD): 405.0 (45.9) mg/L
[1]; Cohort J 2000 mg single dose, Follow up, baseline mean 1051.7
  LDL-C, Mean (SD): 951.7 mg/L
[2]; day 1
  GLS mean ratio (90% CI) of AUC0-τ (white/Japanese): 0.7241 (0.6517–0.8046)
  GLS mean ratio (90% CI) of Cmax (white/Japanese): 0.7699 (0.6738–0.8796)
  GLS mean ratio (90% CI) of AUC0-τ, cohort G [750/250 mg] versus F [375/125 mg]: 1.6893 (1.4492–1.9692)
  GLS mean ratio (90% CI) of Cmax, cohort G [750/250 mg] versus F [375/125 mg]: 1.5185 (1.2747–1.8089)
[2]; day 5
  GLS mean ratio (90% CI) of AUC0-τ (white/Japanese): 0.8645 (0.7740–0.9656)
  GLS mean ratio (90% CI) of Cmax (white/Japanese): 0.8651 (0.7774–0.9627)
  GLS mean ratio (90% CI) of AUC0-τ, cohort G [750/250 mg] versus F [375/125 mg]: 2.2387 (1.9942–2.5132)
  GLS mean ratio (90% CI) of Cmax, cohort G [750/250 mg] versus F [375/125 mg]: 2.1781 (1.9460–2.4379)
[2]; [3]
  Cmax: 29500 ng/mL
  AUC: 484 µg·h/mL
  Tmax: 1.5 h
[2]; [4]
  Cmax: 22700 ng/mL
  AUC: 351 µg·h/mL
  Tmax: 1.75 h
[2]; [5]
  Cmax: 44800 ng/mL
  AUC: 818 µg·h/mL
  Tmax: 3 h
[2]; [6]
  Cmax: 30400 ng/mL
  AUC: 597 µg·h/mL
  Tmax: 2 h
[2]; [7]
  Cmax: 66300 ng/mL
  AUC: 1340 µg·h/mL
  Tmax: 2.5 h
[2]; [8]
  Cmax: 26300 ng/mL
  AUC: 516 µg·h/mL
  Tmax: 1.5 h
